From patent US9663764B2, “Generation of cardiomyocytes from human pluripotent stem cells” (Wisconsin Alumni Research Foundation, priority 2011, dated 2017)

Columns and labels:
Type in all cases: cell-based, human
[1] = system: TCF/LEF promoter activity in H9-7TGP cells; test: 7TGP TCF/LEF promoter-reporter (GFP) assay after CH treatment
Text: In order to probe the activation of canonical Wnt/β-catenin signaling during hPS cell specification to cardiomyocytes, the inventors generated a series of promoter-reporter cell lines in H1 and H9 hESC, and 19-9-11 human iPSC lines. These reporter lines, integrated with a lentiviral 7TGP vector, express GFP under control of a consensus TCF/LEF binding sequence promoter which reports β-catenin activation (FIG. 2A) (Fuerer and Nusse, PLoS One 5:e9370 (2010)). […] Approximately 50% of H9-7TGP cells expressed GFP at 4 days post-addition of 15 μM CH.

[2] = system: 19-9-11 ishcat-1 and ishcat-2 cells; test: Growth factor free cardiac differentiation by CH followed by dox-induced β-catenin shRNA, cTnT flow cytometry
Method: cardiac directed differentiation via small molecules: Cells were dissociated and plated as described in the Activin/BMP4 protocol. When hPS cells maintained on Matrigel® or Synthemax plates achieved confluence, cells were treated with CH in RPMI/B27-insulin for 24 hr (day 0 to day 1). The medium was changed to RPMI/B27-insulin, followed by 2 μg/ml dox treatment at different times between day 1 and day 5 for transgenic cell lines. For genetically unmodified lines, 5 μM IWP2 (Tocris) or IWP4 (Stemgent) was added at day 3 and removed during the day 5 medium change. Cells were maintained in the RPMI/B27 starting from day 7, with the medium changed every 3 days. Flow Cytometry: Cells were dissociated into single cells and then fixed with 1% paraformaldehyde for 20 min at room temperature and stained with primary and secondary antibodies in PBS plus 0.1% Triton X-100 and 0.5% BSA. For the cell proliferation assay, a 17-hour pulse of BrdU was performed to identify dividing cardiomyocytes (Zhang et al., Circ. Res. 104, e30-41 (2009)). Data were collected on a FACSCaliber flow cytometer (Beckton Dickinson) and analyzed using FlowJo. Our results and prior studies (Ren et al., J. Mol. Cell. Cardiol. 51:280-287 (2011); Tran et al., Stem Cells 27:1869-1878 (2009); Wang et al., A.C.S. Chem. Biol. 6, 192-197 (2011); […] et al., Circ Res. 109:360-364 (2011)) indicate that induction of canonical Wnt signaling early and suppression of canonical Wnt signaling at later stages of differentiation enhance yield of cardiomyocytes. The inventors next sought to determine whether modulating Gsk3 and canonical Wnt signaling alone was sufficient to induce cardiogenesis. Undifferentiated hPS cells were cultured in RPMI/B27-insulin medium containing CH. CH was removed by medium exchange at day 1 and dox was added to the medium at various time points between […] and day 4. At day 5, the medium was replaced with RPMI/B27-insulin (FIG. 6A) and cardiomyocyte differentiation was assessed at day 15 by the percentage and yield of cTNT and/or MF20 expressing cells. In the 19-9-11 […]-1 line, 12 μM CH produced the most cTNT+ cells at day 15 without additional dox-induced β-catenin knockdown (FIG. 7A). The inventors then investigated the effect of the timing of dox treatment following addition of 12 μM CH. Addition of dox 36 hours following initiation of differentiation generated 95% cTNT+ cells with yields of approximately 15 cTNT+ cells per input iPSC (FIGS. 6B and 7B). A high yield of cTNT+ cells was also obtained using 19-9-11 […]-2 and three additional hPS cell lines (IMR90C4, 6-9-9, and H9) transduced with inducible β-catenin shRNA […]-1 (FIG. 7C).

[3] = system: 19-9-11 shcat-2 and scramble lines; test: Nanog/Isl1 immunostaining of CH-treated 19-9-11 shcat-2 and scramble lines
Method: Immunostaining: Cells were fixed with 4% paraformaldehyde for 15 min at room temperature and then stained with primary and secondary antibodies in PBS plus 0.4% Triton X-100 and 5% non-fat dry milk (Bio-Rad). Nuclei were stained with Gold Anti-fade Reagent with DAPI (Invitrogen). An epifluorescence microscope (Leica DM IRB) with a QImaging® Retiga 4000R camera was used for imaging analysis. To test whether induction of cardiomyocyte differentiation by GSK3 inhibitors requires β-catenin, the inventors treated the shcat-2 and scramble 19-9-11 lines with CH in mTeSR1 medium. While the shcat-2 line maintained an undifferentiated morphology, the scramble line appeared to undergo differentiation (FIG. 2E), similar to non-transduced lines treated with CH (FIGS. 1B and 2B). Induction of differentiation following CH treatment in the scramble control was further indicated by diminished SOX2 and NANOG expression at day 4 (FIG. 3C). […] After 4 days of CH treatment in mTeSR1, the percentage of cells expressing Oct4 decreased to 61% in the scramble line, while 98% of the shcat-2 cells expressed Oct4 (FIG. 3D). […] To better understand early mesoderm induction via GSK3 inhibition, the inventors analyzed expression of the early mesoderm gene T in scramble and shcat-2 19-9-11 lines. As CH concentration increased, the ratio of T expression in scramble to the shcat-2 line increased (FIG. 3E). […]

[4] = 12 μM CH, dox added 36 hours following initiation of differentiation, day 15

`Cc1c[nH]c(-c2cnc(NCCNc3ccc(C#N)cn3)nc2-c2ccc(Cl)cc2Cl)n1` [CH] was tested, and the “H9-7TGP cells expressing GFP” value ([1]; 15 μM CH, 4 days post-addition) was “Approximately 50%”, the TCF/LEF promoter activity ([1]; H9-7TGP reporter line, CH in mTeSR1 for 4 days) was “activated TCF/LEF promoter activity in a CH concentration-dependent manner” and the purity of cardiomyocytes ([2]; 12 μM CH followed by dox treatment at 36 hours, >50 independent experiments) was greater than 90%. For the same compound, the “cTNT+ cells” value [2, 4] was 95%, the “yield of cTNT+ cells” value [2, 4] was “approximately 15 cTNT+ cells per input iPSC” and the “CH concentration that produced the most cTNT+ cells at day 15” value ([2]; 19-9-11 ishcat-1 line, without dox-induced β-catenin knockdown) was 12 µM. For the same compound, the Nanog/Isl1 immunostaining ([3]; scramble cell line, 15 μM CH in mTeSR1 for 4 days) was “substantial numbers of Nanog−/Isl1+ cells” and the Nanog/Isl1 immunostaining ([3]; shcat-2 cells treated with CH) was “only Nanog+/Isl1− cells”.
